Data as given in the NIST ThermoML archive (doi:10.1016/j.fluid.2009.07.002).

Experiment: xn = mol fraction of the nth substance listed
Details: 101 kPa, Liquid, Taylor dispersion method

`OCCO` [1,2-ethanediol] + O gave a binary diffusion coefficient (298.2 K, x1 = 0) of 1.1e-09 m2/s, a binary diffusion coefficient (298.2 K, x1 = 0.2) of 6.95e-10 m2/s and a binary diffusion coefficient (298.2 K, x1 = 0.4) of 4.82e-10 m2/s. The binary diffusion coefficient (298.2 K, x1 = 0.6) was 3.81e-10 m2/s, the binary diffusion coefficient (298.2 K, x1 = 0.8) was 3.18e-10 m2/s and the binary diffusion coefficient (303.2 K, x1 = 0) was 1.24e-09 m2/s. It also gave a binary diffusion coefficient (303.2 K, x1 = 0.2) of 8.14e-10 m2/s, a binary diffusion coefficient (303.2 K, x1 = 0.4) of 5.28e-10 m2/s and a binary diffusion coefficient (303.2 K, x1 = 0.6) of 4.02e-10 m2/s. It also gave a binary diffusion coefficient (303.2 K, x1 = 0.8) of 3.34e-10 m2/s, a binary diffusion coefficient (308.2 K, x1 = 0) of 1.38e-09 m2/s and a binary diffusion coefficient (308.2 K, x1 = 0.2) of 8.89e-10 m2/s. It also gave a binary diffusion coefficient (308.2 K, x1 = 0.4) of 5.8e-10 m2/s, a binary diffusion coefficient (308.2 K, x1 = 0.6) of 4.51e-10 m2/s and a binary diffusion coefficient (308.2 K, x1 = 0.8) of 4.05e-10 m2/s. For the same molecule, the binary diffusion coefficient (313.2 K, x1 = 0) was 1.51e-09 m2/s, the binary diffusion coefficient (313.2 K, x1 = 0.2) was 9.8e-10 m2/s and the binary diffusion coefficient (313.2 K, x1 = 0.4) was 6.31e-10 m2/s. It also gave a binary diffusion coefficient (313.2 K, x1 = 0.6) of 5.18e-10 m2/s, a binary diffusion coefficient (313.2 K, x1 = 0.8) of 4.68e-10 m2/s and a binary diffusion coefficient (318.2 K, x1 = 0) of 1.68e-09 m2/s. It also gave a binary diffusion coefficient (318.2 K, x1 = 0.2) of 1.09e-09 m2/s, a binary diffusion coefficient (318.2 K, x1 = 0.4) of 7.57e-10 m2/s and a binary diffusion coefficient (318.2 K, x1 = 0.6) of 6e-10 m2/s. For the same molecule, the binary diffusion coefficient (318.2 K, x1 = 0.8) was 5.24e-10 m2/s, the binary diffusion coefficient (323.2 K, x1 = 0) was 1.86e-09 m2/s and the binary diffusion coefficient (323.2 K, x1 = 0.2) was 1.19e-09 m2/s. For the same molecule, the binary diffusion coefficient (323.2 K, x1 = 0.4) was 8.48e-10 m2/s, the binary diffusion coefficient (323.2 K, x1 = 0.6) was 6.88e-10 m2/s and the binary diffusion coefficient (323.2 K, x1 = 0.8) was 6.03e-10 m2/s.

For `OCCOCCO` [diethylene glycol] + O, the binary diffusion coefficient (303.2 K, x1 = 0) was 1.04e-09 m2/s, the binary diffusion coefficient (303.2 K, x1 = 0.2) was 4.69e-10 m2/s and the binary diffusion coefficient (303.2 K, x1 = 0.4) was 3.18e-10 m2/s. For the same molecule, the binary diffusion coefficient (303.2 K, x1 = 0.6) was 2.82e-10 m2/s, the binary diffusion coefficient (303.2 K, x1 = 0.8) was 2.56e-10 m2/s and the binary diffusion coefficient (308.2 K, x1 = 0) was 1.13e-09 m2/s. The binary diffusion coefficient (308.2 K, x1 = 0.2) was 5.24e-10 m2/s, the binary diffusion coefficient (308.2 K, x1 = 0.4) was 3.75e-10 m2/s and the binary diffusion coefficient (308.2 K, x1 = 0.6) was 3.29e-10 m2/s. It also gave a binary diffusion coefficient (308.2 K, x1 = 0.8) of 3.06e-10 m2/s, a binary diffusion coefficient (313.2 K, x1 = 0) of 1.25e-09 m2/s and a binary diffusion coefficient (313.2 K, x1 = 0.2) of 6.02e-10 m2/s. The binary diffusion coefficient (313.2 K, x1 = 0.4) was 4.45e-10 m2/s, the binary diffusion coefficient (313.2 K, x1 = 0.6) was 3.93e-10 m2/s and the binary diffusion coefficient (313.2 K, x1 = 0.8) was 3.72e-10 m2/s. It also gave a binary diffusion coefficient (318.2 K, x1 = 0) of 1.41e-09 m2/s, a binary diffusion coefficient (318.2 K, x1 = 0.2) of 7.01e-10 m2/s and a binary diffusion coefficient (318.2 K, x1 = 0.4) of 5.16e-10 m2/s. The binary diffusion coefficient (318.2 K, x1 = 0.6) was 4.6e-10 m2/s, the binary diffusion coefficient (318.2 K, x1 = 0.8) was 4.3e-10 m2/s and the binary diffusion coefficient (323.2 K, x1 = 0) was 1.53e-09 m2/s. For the same molecule, the binary diffusion coefficient (323.2 K, x1 = 0.2) was 7.83e-10 m2/s, the binary diffusion coefficient (323.2 K, x1 = 0.4) was 5.71e-10 m2/s and the binary diffusion coefficient (323.2 K, x1 = 0.6) was 5.37e-10 m2/s. For the same molecule, the binary diffusion coefficient (323.2 K, x1 = 0.8) was 5.03e-10 m2/s.

`OCCOCCOCCO` [triethylene glycol] + O showed a binary diffusion coefficient (303.2 K, x1 = 0) of 8.15e-10 m2/s, a binary diffusion coefficient (303.2 K, x1 = 0.2) of 3.71e-10 m2/s and a binary diffusion coefficient (303.2 K, x1 = 0.4) of 2.78e-10 m2/s. The binary diffusion coefficient (303.2 K, x1 = 0.6) was 2.33e-10 m2/s, the binary diffusion coefficient (303.2 K, x1 = 0.8) was 2.01e-10 m2/s and the binary diffusion coefficient (308.2 K, x1 = 0) was 8.99e-10 m2/s. It also gave a binary diffusion coefficient (308.2 K, x1 = 0.2) of 4.3e-10 m2/s, a binary diffusion coefficient (308.2 K, x1 = 0.4) of 3.12e-10 m2/s and a binary diffusion coefficient (308.2 K, x1 = 0.6) of 2.7e-10 m2/s. The binary diffusion coefficient (308.2 K, x1 = 0.8) was 2.41e-10 m2/s, the binary diffusion coefficient (313.2 K, x1 = 0) was 9.94e-10 m2/s and the binary diffusion coefficient (313.2 K, x1 = 0.2) was 5.1e-10 m2/s. The binary diffusion coefficient (313.2 K, x1 = 0.4) was 3.7e-10 m2/s, the binary diffusion coefficient (313.2 K, x1 = 0.6) was 3.25e-10 m2/s and the binary diffusion coefficient (313.2 K, x1 = 0.8) was 2.98e-10 m2/s. The binary diffusion coefficient (318.2 K, x1 = 0) was 1.07e-09 m2/s, the binary diffusion coefficient (318.2 K, x1 = 0.2) was 5.48e-10 m2/s and the binary diffusion coefficient (318.2 K, x1 = 0.4) was 4.27e-10 m2/s. It also gave a binary diffusion coefficient (318.2 K, x1 = 0.6) of 3.79e-10 m2/s, a binary diffusion coefficient (318.2 K, x1 = 0.8) of 3.51e-10 m2/s and a binary diffusion coefficient (323.2 K, x1 = 0) of 1.18e-09 m2/s. It also gave a binary diffusion coefficient (323.2 K, x1 = 0.2) of 6.3e-10 m2/s, a binary diffusion coefficient (323.2 K, x1 = 0.4) of 4.8e-10 m2/s and a binary diffusion coefficient (323.2 K, x1 = 0.6) of 4.44e-10 m2/s. The binary diffusion coefficient (323.2 K, x1 = 0.8) was 4.15e-10 m2/s.
